pIC50: −log10 of the molar value. ≈ marks a conversion by molar mass, not a printed value. Like-named read-outs stand apart in the source and are kept apart here.
What was measured:
[1] = system: NCI-60 tumor cell line panel; format: cell-based; conditions: average over panel
[2] = system: 4T1 Syngeneic Breast Cancer; conditions: i.v., cited from earlier work
[3] = system: COX-2, iNOS, phosphorylated STAT3 (pSTAT3); assay: Phase I trial, tumor biopsy data
[4] = Phase I trial, serum creatinine; conditions: day 21
[5] = system: MCF-7/Her-2 Breast Cancer Xenograft; conditions: i.v.; doses at or below the MTD; Konopleva et al. 2006; cited from earlier work
[6] = Approximate solubility, solvent addition method; format: physicochemical; conditions: thermodynamic from solid, room temperature
Description: A weighed sample was treated with aliquots of the test solvent at room temperature. Complete dissolution of the test material was determined by visual inspection. Solubility was estimated based on the total solvent used to provide complete dissolution. The actual solubility may be greater than the value calculated because of the use of solvent aliquots that were too large or due to a slow rate of dissolution. […] If complete dissolution was achieved as a result of only one aliquot addition, the solubility is expressed as “greater than.” Approximate solubilities were determined in various solvents at room temperature, with the results as provided in Table 2.

[7] = system: DU-145 Prostate Cancer Xenograft; assay: DU-145 Prostate Cancer Xenograft; conditions: p.o.
[8] = system: NCI-H460 Lung Cancer Xenograft; assay: NCI-H460 Lung Cancer Xenograft; conditions: p.o.
[9] = system: NQO1 (NAD(P)H:quinone oxidoreductase); assay: Phase I trial, phase 2 gene products in peripheral blood mononuclear cells; format: in vivo, human; conditions: doses of 10 mg/day and above
Source text: Additionally, phase 2 gene products, which include antioxidant and detoxification enzymes, have been monitored in peripheral blood mononuclear cells of patients in the Phase I study.

[10] = system: MMP-9, TNFα, IL-8, and VEGF; assay: Phase I trial, circulating inflammatory cytokines; format: in vivo, human
Description: Based on the known anti-inflammatory properties of CDDO-Me, circulating inflammatory cytokines were evaluated in patients in the Phase I trial. At doses as low as 5 mg/day, there was a reduction of several circulating pro-inflammatory cytokines and chemokines including MMP-9, TNFα, IL-8, and VEGF.

[11] = system: advanced (metastatic) cancer; assay: Phase I dose-escalation trial, safety and anti-tumor activity; format: in vivo, human
Source text: Both the safety and anti-tumor activity of CDDO-Me were reviewed. In addition, the biological effects of CDDO-Me were characterized. […] Several patients (approximately 75% of evaluable patients) were considered to have stable disease (based on standard radiological and clinical criteria) at the first evaluation point following completion of the second treatment cycle. […] Five patients, including patients with melanoma and renal cell cancer, continued to show stable disease, some with evidence of regression of individual tumor lesions, after four cycles of treatment. Four patients were considered to have stable disease after at least six cycles of treatment.

[12] = system: L3.6PL Pancreatic Cancer Xenograft; assay: L3.6PL Pancreatic Cancer Xenograft; conditions: i.v.

SMILES: COC(=O)[C@]12CCC(C)(C)C[C@H]1[C@H]1C(=O)C=C3[C@@]4(C)C=C(C#N)C(=O)C(C)(C)[C@@H]4CC[C@@]3(C)[C@]1(C)CC2 [CDDO methyl ester, methyl 2-cyano-3,12-dioxoleana-1,9(11)-dien-28-oate]
- pIC50 [1]: ~7.46
- DRUG ACTIVITY, suppression ([2]; Delayed Treatment): 67% suppression
- animals tumor-free at sacrifice ([2]; Delayed Treatment, sacrifice on Day 95): 33% of animals tumor-free at
- DRUG ACTIVITY, suppression ([2]; Early Treatment, Ling et al. 2007): 100% suppression
- animals tumor-free at sacrifice ([2]; Early Treatment, sacrifice on Day 85): All animals remained tumor-free
- tumor tissue levels of COX-2, iNOS and pSTAT3 ([3]; biopsies of several patients after two cycles): pronounced reductions
- tumor cell death in biopsy ([3]; several patients, after two cycles): pronounced degree of tumor cell death
- patients with serum creatinine significantly lower than pre-treatment baseline [4]: more than 80%
- DRUG ACTIVITY, regression [5]: 15% regression
- solubility ([6]; isopropanol/water (10:1), organic solvent or mixture, (10:1) Isopropanol/water): 4 mg/mL (≈ 7.91 mM)
- solubility ([6]; organic solvent or mixture, 1,4-Dioxane): 21 mg/mL (≈ 41.5 mM)
- solubility ([6]; organic solvent or mixture, ACN (acetonitrile)): 66 mg/mL (≈ 131 mM)
- solubility ([6]; organic solvent or mixture, Acetone): 70 mg/mL (≈ 138 mM)
- solubility ([6]; organic solvent or mixture, DCM (dichloromethane)): > 194 mg/mL
- solubility ([6]; organic solvent or mixture, EtOAc (ethyl acetate)): 36 mg/mL (≈ 71.2 mM)
- solubility ([6]; organic solvent or mixture, EtOH (ethanol)): 4 mg/mL (≈ 7.91 mM)
- solubility ([6]; organic solvent or mixture, Hexanes): < 1 mg/mL
- solubility ([6]; organic solvent or mixture, MTBE (tert-butyl methyl ether)): 4 mg/mL (≈ 7.91 mM)
- solubility ([6]; organic solvent or mixture, MeOH (methanol)): 8 mg/mL (≈ 15.8 mM)
- solubility ([6]; organic solvent or mixture, THF (tetrahydrofuran)): 97 mg/mL (≈ 192 mM)
- solubility ([6]; organic solvent or mixture, Toluene): 38 mg/mL (≈ 75.1 mM)
- solubility ([6]; Water): < 0.1 mg/mL
- DRUG ACTIVITY, TGI (Tumor Growth Inhibition) ([7]; doses at or below the MTD): 77% TGI
- TGI, multiple schedules tested ([7]; multiple schedules): 60-77%
- comparison with radiation [8]: Me as effective as radiation
- DRUG ACTIVITY, TGI (Tumor Growth Inhibition) ([8]; doses at or below the MTD): 78% TGI^1
- NQO1 in peripheral blood mononuclear cells [9]: Significant induction
- circulating TNFα ([10]; 3 patients with elevated baseline TNF levels, 10, 20 and 40 mg per day): reduced substantially or to below detectable limits
- circulating pro-inflammatory cytokines and chemokines including MMP-9, TNFα, IL-8, and VEGF ([10]; doses as low as 5 mg/day): reduction
- drug-related adverse events ([11]; 5 to 900 mg/day, 21 days on / 7 days rest): no significant drug-related adverse events reported
- patients considered to have stable disease ([11]; after at least six cycles of treatment): Four
- patients continuing to show stable disease ([11]; after four cycles of treatment): Five
- tolerability ([11]; capsules of micronized Form A, 5 to 900 mg/day, 21 days on / 7 days rest, 21 adult patients): very well tolerated
- evaluable patients with stable disease ([11]; first evaluation point after the second treatment cycle): approximately 75%
- new metastases ([11]; patients receiving at least 40 mg per day): No new metastases developed
- comparison with Gemcitabine [12]: CDDO-Me outperformed
- DRUG ACTIVITY, TGI (Tumor Growth Inhibition) ([12]; doses at or below the MTD): 51% TGI

Source: patent US8633243B2, “Forms of CDDO methyl ester” (priority 2007, dated 2014)
